Experimental data from the NIST ThermoML archive (doi:10.1021/je400783h).

Settings: for surface tension liquid-gas: Drop volume; for viscosity / speed of sound / mass density / vapor or sublimation pressure: Liquid; for viscosity: Capillary tube (Ostwald / Ubbelohde) method; for speed of sound: Pulse-echo method; for vapor or sublimation pressure: Ebulliometric method (Recirculating still)

Cc1ccc(C=O)o1 [5-methylfurfural]
Settings | surface tension liquid-gas [mN/m] | vapor or sublimation pressure [kPa]
278.15 K | 43.02 | –
280.65 K | 42.75 | –
283.15 K | 42.37 | –
285.65 K | 42.13 | –
288.15 K | 41.8 | –
290.65 K | 41.46 | –
293.15 K | 41.2 | –
295.65 K | 40.9 | –
298.15 K | 40.61 | –
300.65 K | 40.22 | –
303.15 K | 39.95 | 0.1
305.65 K | 39.66 | –
308.15 K | 39.32 | 0.15
310.65 K | 39.04 | –
313.15 K | 38.75 | –

Settings | mass density [kg/m3] | speed of sound [m/s] | viscosity [mPa·s]
278.15 K, 101.33 kPa | – | 1521 | 3.164
280.65 K, 101.33 kPa | – | 1511.8 | 2.974
283.15 K, 100 kPa | 1118.02 | – | –
283.15 K, 101.33 kPa | – | 1502.5 | 2.764
283.15 K, 2500 kPa | 1119.83 | – | –
283.15 K, 5000 kPa | 1121.37 | – | –
283.15 K, 7500 kPa | 1122.65 | – | –
283.15 K, 10000 kPa | 1124.02 | – | –
283.15 K, 20000 kPa | 1129.41 | – | –
283.15 K, 30000 kPa | 1134.53 | – | –
283.15 K, 40000 kPa | 1139.44 | – | –
283.15 K, 50000 kPa | 1144.14 | – | –
283.15 K, 60000 kPa | 1148.58 | – | –
285.65 K, 101.33 kPa | – | 1493.2 | 2.628
288.15 K, 100 kPa | 1113.09 | – | –
288.15 K, 101.33 kPa | – | 1484 | 2.443
288.15 K, 2500 kPa | 1114.82 | – | –
288.15 K, 5000 kPa | 1116.39 | – | –
288.15 K, 7500 kPa | 1117.87 | – | –
288.15 K, 10000 kPa | 1119.23 | – | –
288.15 K, 20000 kPa | 1124.75 | – | –
288.15 K, 30000 kPa | 1129.99 | – | –
288.15 K, 40000 kPa | 1134.99 | – | –
288.15 K, 50000 kPa | 1139.79 | – | –
288.15 K, 60000 kPa | 1144.31 | – | –
290.65 K, 101.33 kPa | – | 1474.7 | 2.297
293.15 K, 100 kPa | 1108.15 | – | –
293.15 K, 101.33 kPa | – | 1465.5 | 2.175
293.15 K, 2500 kPa | 1110.03 | – | –
293.15 K, 5000 kPa | 1111.5 | – | –
293.15 K, 7500 kPa | 1112.96 | – | –
293.15 K, 10000 kPa | 1114.4 | – | –
293.15 K, 20000 kPa | 1120.15 | – | –
293.15 K, 30000 kPa | 1125.46 | – | –
293.15 K, 40000 kPa | 1130.57 | – | –
293.15 K, 50000 kPa | 1135.4 | – | –
293.15 K, 60000 kPa | 1140.08 | – | –
295.65 K, 101.33 kPa | – | 1456.3 | 2.056
298.15 K, 100 kPa | 1103.2 | – | –
298.15 K, 101.33 kPa | – | 1447 | 1.948
298.15 K, 2500 kPa | 1104.82 | – | –
298.15 K, 5000 kPa | 1106.62 | – | –
298.15 K, 7500 kPa | 1108.34 | – | –
298.15 K, 10000 kPa | 1109.63 | – | –
298.15 K, 20000 kPa | 1115.43 | – | –
298.15 K, 30000 kPa | 1120.97 | – | –
298.15 K, 40000 kPa | 1126.15 | – | –
298.15 K, 50000 kPa | 1131.12 | – | –
298.15 K, 60000 kPa | 1135.84 | – | –
300.65 K, 101.33 kPa | – | 1437.8 | 1.853
303.15 K, 100 kPa | 1098.25 | – | –
303.15 K, 101.33 kPa | – | 1428.7 | 1.757
303.15 K, 2500 kPa | 1100.71 | – | –
303.15 K, 5000 kPa | 1101.81 | – | –
303.15 K, 7500 kPa | 1103.11 | – | –
303.15 K, 10000 kPa | 1104.89 | – | –
303.15 K, 20000 kPa | 1110.81 | – | –
303.15 K, 30000 kPa | 1116.44 | – | –
303.15 K, 40000 kPa | 1121.72 | – | –
303.15 K, 50000 kPa | 1126.87 | – | –
303.15 K, 60000 kPa | 1131.66 | – | –
305.65 K, 101.33 kPa | – | 1419.6 | 1.674
308.15 K, 100 kPa | 1093.29 | – | –
308.15 K, 101.33 kPa | – | 1410.5 | 1.598
308.15 K, 2500 kPa | 1095.01 | – | –
308.15 K, 5000 kPa | 1096.9 | – | –
308.15 K, 7500 kPa | 1098.15 | – | –
308.15 K, 10000 kPa | 1100.06 | – | –
308.15 K, 20000 kPa | 1106.17 | – | –
308.15 K, 30000 kPa | 1111.86 | – | –
308.15 K, 40000 kPa | 1117.24 | – | –
308.15 K, 50000 kPa | 1122.38 | – | –
308.15 K, 60000 kPa | 1127.34 | – | –
310.65 K, 101.33 kPa | – | 1401.4 | 1.527
313.15 K, 100 kPa | 1088.32 | – | –
313.15 K, 101.33 kPa | – | 1392.3 | 1.461
313.15 K, 2500 kPa | 1090.31 | – | –
313.15 K, 5000 kPa | 1092.06 | – | –

101.33 kPa, Vibrating tube method
Settings | mass density [kg/m3]
278.15 K | 1122.94
280.65 K | 1120.49
283.15 K | 1118.02
285.65 K | 1115.56
288.15 K | 1113.09
290.65 K | 1110.62
293.15 K | 1108.15
295.65 K | 1105.68
298.15 K | 1103.2
300.65 K | 1100.73
303.15 K | 1098.25
305.65 K | 1095.77
308.15 K | 1093.29
310.65 K | 1090.8
313.15 K | 1088.32
